Among the data in patent US20180037568A1, “MODULATORS OF METHYL MODIFYING ENZYMES, COMPOSITIONS AND USES THEREOF” (Constellation Pharmaceuticals, Inc., priority 2015, published 2018) are IC50 and EC50 values, retold here.

Test [1] has as its target T1, PRC2 containing wt EZH2 (Homo sapiens, UniProt Q15910).
T1 construct: made in house
The test is described as follows: EZH2 pep BSA Brij 4.0 LowE (IC50): 3H-SAM incorporation into biotinylated H3 peptide. The format is biochemical. On the procedure:
EZH2 Pep BSA Brij 4.0 LowE (IC50):
Compound potencies were assessed through incorporation of ^3H-SAM into a biotinylated H3 peptide. Specifically, PRC2 containing wt EZH2 (20 pM), (pentameric complexes prepared in-house) was pre-incubated with ^3H-SAM (0.9 μM), 2 μM H3K27me3 activating peptide (H2N-RKQLATKAAR(Kme3)SAPATGGVKKP-amide) and compounds (as 10 point duplicate dose response titrations in DMSO, final assay 0.8% DMSO (v/v)) for 120 min in 50 mM Tris (pH 8.5), 1 mM DTT, 0.07 mM Brij-35, 0.1% BSA, and 0.8% DMSO in a total volume of 12.5 μl. Reaction was initiated with biotinylated H3 substrate peptide (H2N-RKQLATKAAR(Kme1)SAPATGGVKKP-NTPEGBiot) as a 2 μM stock in 12.5 μl of buffer and allowed to react at room temperature for 5 h. Quenching was accomplished by addition of 20 μl of STOP solution (50 mM Tris (pH 8.5), 200 mM EDTA, 2 mM SAH). 35 μl of the quenched solution was transferred to Streptavidin Flashplates, incubated overnight, washed, and read in a TopCount Reader (Perkin Elmer). IC50s were calculated relative to fully active and no enzyme control wells using non-linear least square four parameter fits.

Test [2] deals with H3K27me3 mark. The test is described as follows: H3K27me3 Alpha Hela Assay (AlphaLISA). It is filed as cell-based. The conditions noted are these: Hela cells, read-out: EZH2 Cell H3K27me3 Alpha HeLa (EC50 K27me3). On the procedure:
EC50 Measurements for Inhibitors in HeLa Cell Assays
H3K27me3 Alpha Hela Assay (AlphaLISA). Ten different doses of each test compound (in a series of 3-fold dilutions) were plated in duplicate 384-well tissue culture treated plates (Catalog #781080; Greiner Bio One; Monroe, N.C.). Hela cells grown in culture were trypsinized and counted using a Countess® cell counter (Catalog # C10281; Life Technologies, Grand Island, N.Y.). Cell were diluted to 67,000 cells per mL in 10% DMEM (Catalog #10569-010 Life Technologies, Grand Island, N.Y.) and 15 μL (1,000 cells) were plated into each well using the Biotek MicroFlo™ Select Dispenser (BioTek Instruments, Inc. Vermont, USA),) of the 384-well plate. Plates were incubated at 37° C./5% CO2 for 72 hrs. One of the duplicate plates was processed for HeLa assay and the other for viability.
To the plate processed for AlphaLISA was added 5 μL per well Cell-Histone Lysis buffer (1×) (Catalog # AL009F1 Perkin Elmer; Waltham, Mass.) and the plate was incubated at RT for 30 minutes on a plate shaker with low speed (Model#4625-Q Thermo Scientific; Waltham, Mass.). Then, 10 μL per well Histone Extraction buffer (catalog # AL009F2; Perkin Elmer; Waltham, Mass.) was added and the plate further incubated at RT for 20 min on plate shaker with low speed. To each well was then added 10 μL per well of a 5× mix of anti-K27me3 acceptor beads plus Biotinylated anti-Histone H3 (C-ter) Antibody (diluted to 3 nM final) (Catalog #AL118 Perkin Elmer; Waltham, Mass.). Dilution of the acceptor beads and then anti-Histone H3 was with 1× Histone Detection buffer (Catalog # AL009F3 Perkin Elmer; Waltham, Mass.) which was produced diluted from the 10× stock provided. The plate was sealed with an aluminum plate sealer and incubated at 23° C. for 60 min. We then added 10 μL 5× solution of Streptavidin Donor beads (Catalog #6760002 Perkin Elmer; Waltham, Mass.) (20 μg/mL final in 1× Histone Detection Buffer), sealed the plate with Aluminum plate sealer and incubated at 23° C. for 30 min. The plates were then read using an EnVision-Alpha Reader (model #2104 Perkin Elmer; Waltham, Mass.).
Data from both assays was analyzed using Assay Assistant (Constellation Pharmaceuticals In-house product) and Activity Base (IDBS Ltd, Surrey, UK) template. Data files were imported to Assay Assistant and assay conditions were specified. A unique Analysis ID was created and the data files exported to Activity Base. An analysis template was created on Activity Base to measure dose-dependent inhibition of H3K27me3 mark and cell viability respectively. Readout of DMSO wells were used to normalize the data. Resulting curves were fitted using Activity base software Model 205 (IDBS Ltd, Surrey, UK). The data was checked for quality, validated and integrated in excel format using SARview (IDBS Ltd, Surrey, UK).
(In general: Bead proximity is the source of the signal in Alpha formats.)

The mark [3] stands for this setting: EZH2 pep BSA Brij 4.0 LowE (IC50), 20 pM PRC2 wt EZH2, 0.9 μM 3H-SAM, biotinylated H3 peptide substrate, 2 μM H3K27me3 activating peptide.
[4] abbreviates: read-out: EZH2 pep BSA Brij 4.0 LowE (IC50); 20 pM PRC2 wt EZH2, 0.9 μM 3H-SAM, biotinylated H3 peptide substrate, 2 μM H3K27me3 activating peptide.
The mark [5] stands for this setting: 20 pM PRC2 wt EZH2, 0.9 μM 3H-SAM, biotinylated H3 peptide substrate, 2 μM H3K27me3 activating peptide; read-out: EZH2 pep BSA Brij 4.0 LowE (IC50).

Where two headings read alike, the source gives them in different places.

T1 sequence (Q15910 whole entry): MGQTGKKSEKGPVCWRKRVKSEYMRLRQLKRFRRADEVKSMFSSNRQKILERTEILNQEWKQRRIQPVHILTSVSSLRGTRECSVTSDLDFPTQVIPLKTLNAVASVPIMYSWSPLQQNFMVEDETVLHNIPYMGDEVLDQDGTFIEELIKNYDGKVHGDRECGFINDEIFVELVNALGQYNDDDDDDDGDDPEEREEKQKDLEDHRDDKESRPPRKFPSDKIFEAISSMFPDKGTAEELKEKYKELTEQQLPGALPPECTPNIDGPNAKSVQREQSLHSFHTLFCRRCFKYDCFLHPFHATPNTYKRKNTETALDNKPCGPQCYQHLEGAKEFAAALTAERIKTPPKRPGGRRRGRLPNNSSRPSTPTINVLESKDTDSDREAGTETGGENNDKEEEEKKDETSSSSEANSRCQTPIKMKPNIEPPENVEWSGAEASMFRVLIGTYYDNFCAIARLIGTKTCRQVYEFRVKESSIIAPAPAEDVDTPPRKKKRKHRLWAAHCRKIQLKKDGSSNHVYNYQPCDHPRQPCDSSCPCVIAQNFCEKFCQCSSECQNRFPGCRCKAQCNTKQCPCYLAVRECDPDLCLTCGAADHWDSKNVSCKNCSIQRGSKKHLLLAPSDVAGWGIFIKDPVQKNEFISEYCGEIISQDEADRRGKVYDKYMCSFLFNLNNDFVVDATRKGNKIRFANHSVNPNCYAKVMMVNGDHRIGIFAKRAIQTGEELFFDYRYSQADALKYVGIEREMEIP
T1 sequence (O75530 whole entry partner): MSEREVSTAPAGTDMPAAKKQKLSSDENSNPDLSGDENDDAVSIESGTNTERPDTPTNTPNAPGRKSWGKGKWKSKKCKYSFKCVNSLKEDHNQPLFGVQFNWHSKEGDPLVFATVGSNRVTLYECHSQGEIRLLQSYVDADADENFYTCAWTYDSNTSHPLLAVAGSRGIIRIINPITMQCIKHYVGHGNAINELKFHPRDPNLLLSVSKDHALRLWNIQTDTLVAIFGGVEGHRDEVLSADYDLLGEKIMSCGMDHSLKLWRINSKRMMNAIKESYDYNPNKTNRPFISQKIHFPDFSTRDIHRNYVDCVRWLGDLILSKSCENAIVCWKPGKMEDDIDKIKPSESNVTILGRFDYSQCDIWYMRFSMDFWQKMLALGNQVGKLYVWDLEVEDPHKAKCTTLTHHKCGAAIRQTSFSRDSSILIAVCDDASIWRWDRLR
T1 sequence (Q15022 whole entry partner): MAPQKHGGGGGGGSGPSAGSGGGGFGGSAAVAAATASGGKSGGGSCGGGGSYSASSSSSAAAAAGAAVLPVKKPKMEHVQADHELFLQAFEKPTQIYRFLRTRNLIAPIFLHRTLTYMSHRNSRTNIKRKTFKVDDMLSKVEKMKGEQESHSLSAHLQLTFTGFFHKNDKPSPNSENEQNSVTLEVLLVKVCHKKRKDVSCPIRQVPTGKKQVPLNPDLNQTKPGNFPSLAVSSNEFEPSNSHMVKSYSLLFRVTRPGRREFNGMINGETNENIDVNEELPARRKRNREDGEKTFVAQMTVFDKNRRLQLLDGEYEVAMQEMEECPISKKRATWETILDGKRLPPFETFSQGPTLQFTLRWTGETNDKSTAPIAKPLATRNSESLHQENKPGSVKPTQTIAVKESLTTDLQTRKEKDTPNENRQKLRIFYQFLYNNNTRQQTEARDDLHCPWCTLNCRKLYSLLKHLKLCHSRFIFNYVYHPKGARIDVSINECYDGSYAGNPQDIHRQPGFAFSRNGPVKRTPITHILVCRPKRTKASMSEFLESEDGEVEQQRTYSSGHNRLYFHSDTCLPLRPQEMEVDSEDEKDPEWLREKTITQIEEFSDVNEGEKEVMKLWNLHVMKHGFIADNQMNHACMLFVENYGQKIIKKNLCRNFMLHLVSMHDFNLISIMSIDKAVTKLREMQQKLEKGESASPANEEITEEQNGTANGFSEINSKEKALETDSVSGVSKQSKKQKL
T1 sequence (Q09028 whole entry partner): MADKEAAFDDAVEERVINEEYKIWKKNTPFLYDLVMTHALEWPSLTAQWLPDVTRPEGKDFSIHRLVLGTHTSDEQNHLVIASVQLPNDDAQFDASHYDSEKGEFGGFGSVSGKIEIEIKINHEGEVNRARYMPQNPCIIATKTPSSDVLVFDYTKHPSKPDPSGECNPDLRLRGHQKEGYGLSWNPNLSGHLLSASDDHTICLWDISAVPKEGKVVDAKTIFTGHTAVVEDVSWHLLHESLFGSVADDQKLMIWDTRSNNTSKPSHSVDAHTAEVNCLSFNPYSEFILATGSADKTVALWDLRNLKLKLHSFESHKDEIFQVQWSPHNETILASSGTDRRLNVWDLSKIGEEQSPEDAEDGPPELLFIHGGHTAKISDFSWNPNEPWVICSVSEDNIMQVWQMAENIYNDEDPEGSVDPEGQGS
T1 sequence (Q6ZN18 whole entry partner): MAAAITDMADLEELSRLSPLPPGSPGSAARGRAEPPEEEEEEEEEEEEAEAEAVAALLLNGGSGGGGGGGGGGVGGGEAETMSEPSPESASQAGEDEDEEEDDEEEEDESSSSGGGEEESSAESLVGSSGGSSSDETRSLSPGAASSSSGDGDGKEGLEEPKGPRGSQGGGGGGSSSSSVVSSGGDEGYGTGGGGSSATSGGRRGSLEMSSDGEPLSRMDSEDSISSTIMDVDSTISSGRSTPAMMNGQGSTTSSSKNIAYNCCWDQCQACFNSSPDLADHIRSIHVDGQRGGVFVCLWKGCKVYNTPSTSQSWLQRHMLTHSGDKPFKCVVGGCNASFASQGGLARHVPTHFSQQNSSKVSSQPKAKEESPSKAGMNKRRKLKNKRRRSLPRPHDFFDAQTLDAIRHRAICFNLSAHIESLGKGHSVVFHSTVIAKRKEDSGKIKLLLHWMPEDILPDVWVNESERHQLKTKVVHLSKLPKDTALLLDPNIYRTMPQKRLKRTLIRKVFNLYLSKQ

Regarding `Cc1cc(C)c(CNC(=O)c2c(C)n(C(C)C3CCNC(C(F)(F)F)C3)c3ccccc23)c(=O)[nH]1` (single isomer, unassigned) [Compound 17, N-((4,6-dimethyl-2-oxo-1,2-dihydropyridin-3-yl)methyl)-2-methyl-1-(1-(2-(trifluoromethyl)piperidin-4-yl)ethyl)-1H-indole-3-carboxamide], the concentration for half-maximal inhibition (IC50) (in general, the midpoint of a concentration-inhibition curve) in test [1] (setting [3]) was less than 100 nM. Besides, the concentration for a half-maximal effect (EC50) – broadly, the concentration giving half of the maximal effect – in test [2] (Homo sapiens, HeLa, 72 h) is less than 400 nM.

As for `Cc1cc(C)c(CNC(=O)c2c(C)n(C(C)C3CCN(C)C(C(F)(F)F)C3)c3ccccc23)c(=O)[nH]1` (single isomer, unassigned) [Compound 25, N-((4,6-dimethyl-2-oxo-1,2-dihydropyridin-3-yl)methyl)-2-methyl-1-(1-(1-methyl-2-(trifluoromethyl)piperidin-4-yl)ethyl)-1H-indole-3-carboxamide], in test [1] (setting [3]), the IC50 was less than 100 nM. For the same compound, the EC50 in test [2] (72 hrs) is greater than 2000 nM.

Turning to `Cc1cc(C)c(CNC(=O)c2c(C)n(C(C)C3CCN(C)C(C(F)(F)F)C3)c3ccccc23)c(=O)[nH]1` (single isomer, unassigned) [Compound 26, N-((4,6-dimethyl-2-oxo-1,2-dihydropyridin-3-yl)methyl)-2-methyl-1-(1-(1-methyl-2-(trifluoromethyl)piperidin-4-yl)ethyl)-1H-indole-3-carboxamide], the 50% inhibitory concentration (IC50) in test [1] (setting [4]) is less than 100 nM. For the same compound, the EC50 in test [2] (72 hrs) is less than 400 nM.

`COc1cc(C)[nH]c(=O)c1CNC(=O)c1c(C)n(C(C)C2CCN(C)CC2C(F)(F)F)c2ccccc12` (single isomer, unassigned) [Compound 27, N-((4-methoxy-6-methyl-2-oxo-1,2-dihydropyridin-3-yl)methyl)-2-methyl-1-(1-(1-methyl-3-(trifluoromethyl)piperidin-4-yl)ethyl)-1H-indole-3-carboxamide]: the IC50 in test [1] (setting [3]) was 100 to 1000 nM. In addition, the EC50 in test [2] (Homo sapiens, HeLa, 72 h) was greater than 2000 nM.

On to `COc1cc(C)[nH]c(=O)c1CNC(=O)c1c(C)n(C(C)C2CCN(C)CC2C(F)(F)F)c2ccccc12` (single isomer, unassigned) [Compound 28, N-((4-methoxy-6-methyl-2-oxo-1,2-dihydropyridin-3-yl)methyl)-2-methyl-1-(1-(1-methyl-3-(trifluoromethyl)piperidin-4-yl)ethyl)-1H-indole-3-carboxamide], for which the IC50 in test [1] (setting [3]) was less than 100 nM. Also, in test [2] (72 hrs), the concentration giving a half-maximal response (EC50) is greater than 2000 nM.

With `COc1cc(C)[nH]c(=O)c1CNC(=O)c1c(C)n(C(C)C2CCN(C)C(c3ccc(F)cc3)C2)c2ccccc12` (single isomer, unassigned) [Compound 34, 1-(1-(2-(4-fluorophenyl)-1-methylpiperidin-4-yl)ethyl)-N-((4-methoxy-6-methyl-2-oxo-1,2-dihydropyridin-3-yl)methyl)-2-methyl-1H-indole-3-carboxamide], the IC50 in test [1] (setting [5]) lay in the range of 100 to 1000 nM. Moreover, the half-maximal effective concentration (EC50) in test [2] (72 hrs) is greater than 2000 nM.

For `COc1cc(C)[nH]c(=O)c1CNC(=O)c1c(C)n(C(C)C2CCN(C)C(c3ccc(F)cc3)C2)c2ccccc12` (single isomer, unassigned) [Compound 35, 1-(1-(2-(4-fluorophenyl)-1-methylpiperidin-4-yl)ethyl)-N-((4-methoxy-6-methyl-2-oxo-1,2-dihydropyridin-3-yl)methyl)-2-methyl-1H-indole-3-carboxamide], in test [1] (setting [5]), the concentration for half-maximal inhibition (IC50) was less than 100 nM. In addition, the half-maximal effective concentration (EC50) in test [2] (72 hrs) was less than 400 nM.

As to `CCc1cc(C)[nH]c(=O)c1CNC(=O)c1c(C)n(C(C)C2CCNC(C(F)(F)F)C2)c2ccccc12` (centres unmarked) [Compound 5, N-((4-ethyl-6-methyl-2-oxo-1,2-dihydropyridin-3-yl)methyl)-2-methyl-1-(1-(2-(trifluoromethyl)piperidin-4-yl)ethyl)-1H-indole-3-carboxamide], the IC50 in test [1] (setting [3]) was less than 100 nM. Moreover, in test [2] (Homo sapiens, HeLa, 72 h), the EC50 is less than 400 nM.

Compound `CCCc1cc(C)[nH]c(=O)c1CNC(=O)c1c(C)n(C(C)C2CCNC(C(F)(F)F)C2)c2ccccc12` (centres unmarked) [Compound 6, 2-methyl-N-((6-methyl-2-oxo-4-propyl-1,2-dihydropyridin-3-yl)methyl)-1-(1-(2-(trifluoromethyl)piperidin-4-yl)ethyl)-1H-indole-3-carboxamide] returned a concentration for half-maximal inhibition (IC50) in test [1] (setting [3]) of less than 100 nM. Moreover, the EC50 in test [2] (Homo sapiens, HeLa, 72 h) is less than 400 nM.

`Cc1cc(OC(F)F)c(CNC(=O)c2c(C)n(C(C)C3CCNC(C(F)(F)F)C3)c3ccccc23)c(=O)[nH]1` (centres unmarked) [Compound 7, N-((4-(difluoromethoxy)-6-methyl-2-oxo-1,2-dihydropyridin-3-yl)methyl)-2-methyl-1-(1-(2-(trifluoromethyl)piperidin-4-yl)ethyl)-1H-indole-3-carboxamide]: the IC50 in test [1] (setting [3]) is less than 100 nM. Also, the concentration for a half-maximal effect (EC50) in test [2] (Homo sapiens, HeLa, 72 h) was less than 400 nM.

Consider `COc1cc(C)[nH]c(=O)c1CNC(=O)c1c(C)n(C(C)C2CCN(C)C(CF)C2)c2ccccc12` (centres unmarked) [Compound 29, 1-(1-(2-(fluoromethyl)-1-methylpiperidin-4-yl)ethyl)-N-((4-methoxy-6-methyl-2-oxo-1,2-dihydropyridin-3-yl)methyl)-2-methyl-1H-indole-3-carboxamide], for which, in test [1] (setting [3]), the half-maximal inhibitory concentration (IC50) is less than 100 nM. Moreover, the EC50 in test [2] (Homo sapiens, HeLa, 72 h) is greater than 2000 nM.

Turning to `COC(=O)N1CCC(C(C)n2c(C)c(C(=O)NCc3c(OC)cc(C)[nH]c3=O)c3ccccc32)CC1C` (centres unmarked) [Compound 79], the IC50 in test [1] (setting [5]) was less than 100 nM.

Take `COc1cc(C)[nH]c(=O)c1CNC(=O)c1c(C)n(C(C)C2CCN(C(C)=O)C(CC(F)(F)F)C2)c2ccccc12` (centres unmarked) [Compound 80]: the IC50 in test [1] (setting [5]) is less than 100 nM.

As to `COc1cc(C)[nH]c(=O)c1CNC(=O)c1c(C)n(C(C)C2CCN(C(C)=O)C(CC(F)(F)F)C2)c2ccccc12` (centres unmarked) [Compound 81], the half-maximal inhibitory concentration (IC50) in test [1] (setting [5]) was less than 100 nM.

As to `COC(=O)N1CCC(C(C)n2c(C)c(C(=O)NCc3c(OC)cc(C)[nH]c3=O)c3ccccc32)CC1C` (centres unmarked) [Compound 82], the 50% inhibitory concentration (IC50) in test [1] (setting [5]) is 100 to 1000 nM.

`Cc1cc(C)c(CNC(=O)c2c(C)n(C(C)C3CCNC(CC(F)(F)F)C3)c3ccccc23)c(=O)[nH]1` (centres unmarked) [Compound 83] returned a 50% inhibitory concentration (IC50) in test [1] (setting [3]) of less than 100 nM.

With `Cc1cc(C)c(CNC(=O)c2c(C)n(C(C)C3CCNC(CC(F)(F)F)C3)c3ccccc23)c(=O)[nH]1` (centres unmarked) [Compound 85], in test [1] (setting [4]), the IC50 was less than 100 nM.

On to `Cc1cc(C)c(CNC(=O)c2c(C)n(C(C)C3CCNC(CC(F)(F)F)C3)c3ccccc23)c(=O)[nH]1` (centres unmarked) [Compound 86], for which the IC50 in test [1] (setting [4]) is less than 100 nM.

The compound `COc1cc(C)[nH]c(=O)c1CNC(=O)c1c(C)n(C(C)C2CCNC(CC(F)(F)F)C2)c2ccccc12` (centres unmarked) [Compound 87] registered a concentration for half-maximal inhibition (IC50) in test [1] (setting [3]) of 100 to 1000 nM.

In turn, `CCS(=O)(=O)N1CCC(C(C)n2c(C)c(C(=O)NCc3c(OC)cc(C)[nH]c3=O)c3ccccc32)CC1C` (centres unmarked) [Compound 93] came in with an IC50 in test [1] (setting [3]) of 100 to 1000 nM.

Take `CCS(=O)(=O)N1CCC(C(C)n2c(C)c(C(=O)NCc3c(OC)cc(C)[nH]c3=O)c3ccccc32)CC1C` (centres unmarked) [Compound 94]: the IC50 in test [1] (setting [3]) lay in the range of 100 to 1000 nM.
